# Results taken from patent publication US11999964B2, “Synthetic mammalian signaling circuits for robust cell population control” (California Institute of Technology, priority 2020, dated 2024).
# Experiments:
# Assay type in all cases: cell-based, Hamster
# [1] = system: parental cells; assay: Parental cells cultured with IAA and blasticidin (pilot); conditions: cultured in the presence of IAA and blasticidin
# Protocol: FIGS. 14A-14D depict non-limiting exemplary data showing simple negative feedback enables cell density-dependent killing. (FIGS. 14A-14B) Long-term culture traces under 50 μg/ml and 100 μg/ml blasticidin conditions. Experimental setups are the same as FIG. 11B. […] A cell line collected from the experiment described in (FIG. 14D) was cultured, in parallel with the parental line, with different IAA and blasticidin combinations for 4 days. Survival rates were normalized to the parental line, and each bar is from a triplet. […] Cells were seeded into a 24-well imaging plate with 50 μg/ml of blasticidin solely or with 100 μM IAA or IAM, and no cells survived the combined IAA and blasticidin treatment. Each trace reflects an average of 12 positions in a sample well.
# First, resistance mutations occurred in separately maintained, long-term cultures, and therefore could not spread from one culture to another. […] While sensing mutations are likely responsible at least in part for the mutant growth advantage, their specific effects in a parental background was not characterized. […] However, as described herein, a paradoxical circuit designs provide robust population control.
# [2] = system: Receiver cell line (CHO-K1 cells); assay: Receiver cell survival with IAA and blasticidin; conditions: IAA added to media containing blasticidin; four days; dose-dependent
# From the text: (§1) FIGS. 1A-1D depict non-limiting exemplary embodiments and data showing the plant hormone auxin allows private-channel mammalian cell-cell communication. […] Middle: Engineered cells that can send and receive the signal simultaneously can respond to their own population size. Right: coupling the sending-receiving function with cell survival in a negative feedback can enable population control. (FIG. 1B) Auxin Receiver cells constitutively express a fluorescent target fusion protein, mCherry-AID-BlastR, as well as the F-box protein osTIR1. […] The response of mCherry fluorescence to two different species of auxin (IAA and NAA) was measured after two days of treatment (dots). […] Cells were counted by flow cytometry (n=3, error bar=standard deviation). […]
# Flow cytometry by trypsinizing 0.25% trypsin-EDTA (GIBCO) for 1 min at room temperature. […] Cells were then filtered through a 40 μm cell strainer and analyzed by flow cytometry (MACSQuant VYB, Miltenyi or CytoFLEX, Beckman Coulter). […] All fluorescence data were acquired as the median value of the gated population. For counting cells, 1000 CountBright beads (Life Technologies) were spiked into the sample before filtering, gated out by their fluorescence in analysis and used to estimate cell number in each sample.
# [3] = target: T1, mCherry-AID-Blast R (UniProt P93830+Q7XVM8, DEL133-229); assay: Auxin regulation of mCherry-AID-BlastR fluorescence in Receiver cells; conditions: Receiver CHO-K1 cells, two days of treatment, Michaelis-Menten fit; read-out: EC50, reduction of mCherry fluorescence
# T1 construct: expressed in transfected cells; 'Receiver' line
# T1 sequence (P93830 65-132 limits assumed, stated change not applied): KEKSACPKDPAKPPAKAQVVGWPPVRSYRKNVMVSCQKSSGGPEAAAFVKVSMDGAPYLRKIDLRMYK
# T1 sequence (Q7XVM8 whole entry, stated change not applied): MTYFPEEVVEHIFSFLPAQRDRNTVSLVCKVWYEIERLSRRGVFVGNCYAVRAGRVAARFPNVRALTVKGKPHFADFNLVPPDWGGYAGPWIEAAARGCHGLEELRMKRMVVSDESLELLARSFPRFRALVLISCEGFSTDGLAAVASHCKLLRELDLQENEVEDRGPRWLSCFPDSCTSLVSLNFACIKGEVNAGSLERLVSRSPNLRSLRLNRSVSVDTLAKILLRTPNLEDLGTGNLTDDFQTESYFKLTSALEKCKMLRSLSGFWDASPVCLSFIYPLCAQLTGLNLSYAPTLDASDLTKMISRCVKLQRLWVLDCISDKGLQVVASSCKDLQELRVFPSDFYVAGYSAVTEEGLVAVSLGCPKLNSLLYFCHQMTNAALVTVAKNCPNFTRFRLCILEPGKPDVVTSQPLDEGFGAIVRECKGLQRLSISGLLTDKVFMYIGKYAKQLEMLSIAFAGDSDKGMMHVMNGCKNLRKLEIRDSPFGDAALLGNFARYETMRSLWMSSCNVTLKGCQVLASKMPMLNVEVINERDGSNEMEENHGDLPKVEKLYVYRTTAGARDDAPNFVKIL
# T1 sequence (Q9WTX5 whole entry partner): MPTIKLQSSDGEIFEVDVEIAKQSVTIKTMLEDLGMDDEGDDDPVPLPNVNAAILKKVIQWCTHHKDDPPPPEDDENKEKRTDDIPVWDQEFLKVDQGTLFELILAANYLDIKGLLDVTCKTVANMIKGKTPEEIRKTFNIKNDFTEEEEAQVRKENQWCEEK
# From the text: as §1
# To establish and characterize auxin regulation of mammalian cell growth, auxin sensing was coupled to drug resistance and fluorescence. Specifically, blasticidin S deaminase (Blast R), whose protein product is necessary for survival in the presence of blasticidin, was fused to AID and mCherry domains, allowing auxin-dependent degradation and fluorescent readout of protein concentration, respectively. […]
# To fit the mCherry's response curve to auxin and population (FIG. 1C, FIGS. 3A and 3B; FIGS. 7A and 7B), it was assumed the log of fluorescence (F) follows an inverted Michaelis-Menten's equation as follow: […]
# [4] = system: Sender-Receiver cells; assay: Quorum sensing of Sender-Receiver cells (reporter fluorescence versus population density); conditions: Sender-Receiver cells without PIN2, two days
# Protocol: FIGS. 3A-3D depict non-limiting exemplary embodiments and data showing Sender-Receiver cells sense their population density and regulate survival accordingly. (FIGS. 3A-3B) Sender-Receiver and Sender-Receiver-PIN2 cells perform quorum sensing. For both plots, cells were seeded at different densities and induction conditions, with either of the two auxins (saturating signaling) or their precursors (to allow quorum sensing). mCherry fluorescence was assayed after two days as a reporter of auxin sensing. Inset: Cells in B express the transporter PIN2, which actively exports auxin. Data were fitted onto an inverted Michaelis-Menten's function on log scale (see FIG. 7B for fitted parameters). (FIG. 3C) Sender-Receiver-PIN2 cells sense population size per unit volume. Cells were grown for two days at 6 different densities for each media volume, and cultured on a rocker for better mixing. (FIG. 3D) Sender-Receiver-PIN2 triggers cell death at high population density. […]
# It was next asked whether Sender-Receiver cells could sense their own population density by producing auxin at a rate proportional to population size and sensing auxin concentration in the local environment (quorum sensing, FIG. 1A, middle panel). The dependence of reporter expression on cell population density in the presence of concentrations of each precursor sufficient to generate saturating levels of auxin was analyzed. […]
# [5] = system: Sender-Receiver-PIN2; assay: Density-dependent survival of Sender-Receiver-PIN2 cells in blasticidin; conditions: media with blasticidin, 4 days
# Protocol: FIGS. 3A-3D depict non-limiting exemplary embodiments and data showing Sender-Receiver cells sense their population density and regulate survival accordingly. (FIGS. 3A-3B) Sender-Receiver and Sender-Receiver-PIN2 cells perform quorum sensing. For both plots, cells were seeded at different densities and induction conditions, with either of the two auxins (saturating signaling) or their precursors (to allow quorum sensing). mCherry fluorescence was assayed after two days as a reporter of auxin sensing. Inset: Cells in B express the transporter PIN2, which actively exports auxin. Data were fitted onto an inverted Michaelis-Menten's function on log scale (see FIG. 7B for fitted parameters). (FIG. 3C) Sender-Receiver-PIN2 cells sense population size per unit volume. Cells were grown for two days at 6 different densities for each media volume, and cultured on a rocker for better mixing. (FIG. 3D) Sender-Receiver-PIN2 triggers cell death at high population density. Cells were seeded at different confluence levels, grown for four days in media with 50 μg/ml blasticidin and IAM, IAA, or no auxin (Error bars are standard deviation, n=3)).
# Linking quorum sensing to cell survival could enable cell population control (FIG. 1A, right). […]
# [6] = target: T1, mCherry-AID-Blast R; assay: Conditioned media from Sender-Receivers applied to Receivers; conditions: 2 days conditioning, diluted into an equal volume of fresh media
# Protocol: FIGS. 2A-2E depict non-limiting exemplary embodiments and data showing Sender-Receiver cells produce and respond to auxin. […] (FIG. 2B) Stable expression of iaaH in Receiver cells allows them to produce auxin from precursors (blue square). (FIG. 2C) Conditioned media experiment (schematic). Fresh culture media with or without precursors was added to plated sender cells, collected, mixed at 1:1 ratio with standard fresh media, and then applied to receiver cells. (FIG. 2D) iaaH can produce IAA and NAA auxins from IAM and NAM precursors, respectively. Standard media, with or without precursors, was conditioned by Sender-Receivers or standard CHO-K1 cells for 48 hours and applied to Receiver cells for another two days. Receivers cultured with fresh media with or without auxins were also assayed as controls. Data are normalized to Receiver cell fluorescence treated with media conditioned by CHO-K1 cells. Error bars represent standard deviation of 3 replicates. (FIG. 2E) Auxin senders can generate an auxin gradient. Sender-Receivers (green) were seeded within a 7 mm×7 mm square at the edge of a 60 mm dish, and Receivers were plated everywhere else (no fluorescence or red). One day after plating, the media was replaced with fresh media containing low-melting-point agarose, with or without IAM (Methods). Plates were imaged after two additional days of culture. […]
# [7] = system: Paradaux cells; assay: Paradaux cell survival versus auxin with AP1903 and/or blasticidin, and model parameter fitting
# From the text: FIGS. 4A-4G depict non-limiting exemplary embodiments and data showing paradoxical architecture reduces susceptibility to cheater mutations. (FIG. 4A) In the paradoxical architecture, the same signal inhibits growth (red pathway) and death (green pathway). This can produce a window of auxin concentrations leading to positive net growth (light blue region). Without mutation, the paradoxical and negative feedback circuits operate similarly around a stable equilibrium point of large population size (solid dots in the left panels). Mutations that eliminate sensing make both death and growth independent of auxin concentration (right panels), which selects against mutations in the paradoxical circuit due to negative net growth (FIG. 4B) In the paradoxical circuit implementation, auxin regulates growth through Blast^R (upper path), and also regulates apoptosis via iCasp9 (lower path), each with distinct fluorescent protein readouts and a small molecule (blasticidin and AP1903) as a control switch. (FIG. 4C) The full paradoxical circuit can be encoded as a single open reading frame, with distinct proteins separated by T2A peptides (grey squares). (FIG. 4D) Paradaux cells respond to auxin in a biphasic manner. Cells were seeded at about 1/8 confluence (grey dashed line) and pretreated with NAA for one day, then treated with combinations of NAA, blasticidin (20 μg/ml) and AP1903 (50 nM) for another 3 days, and imaged. Pink, green, and blue dots show the mean and standard deviation of three replicates in the presence of AP1903, blasticidin, or both, respectively. […] Blue dashed lines indicate predictions for the fully operational circuit based on the green and red curves. Dotted blue line is the model prediction when the synergy term is included. (FIG. 4E) Different classes of behavior can occur in different parameter regimes. Using the model auxin-dependent growth was simulated in different parameter regimes and identified five distinct regimes (indicated schematically as insets). Using this classification, growth curves were numerically analyzed and sorted for each concentration of blasticidin and AP1903 (central plot). The blue dot indicates the blasticidin and AP1903 concentrations used in the time-lapse movie analysis. The grey region indicates curves that could not be classified into one of these categories (0.68% of total, see FIG. 9F and Supplementary text). (FIG. 4F). For each expression level, the percent of blasticidin-AP1903 concentrations that generate paradoxical behavior was analyzed, similar to FIG. 4E. Optimizing the expression and ratio of Blast R and iCasp9 can widen the paradoxical regime. (FIG. 4G) Dynamic simulations show the Paradoxical Control circuit provides evolutionary robustness. For the negative feedback system, tic and βC and βsyn are set to zero. Mutated strains were simulated with auxin (A) fixed to zero, representing sensing deficient mutations. On day 25, 50, 75 and 100, mutant cells (1% of the population cap) were introduced into the simulated system to test robustness to mutations. These mutants take over in the negative feedback circuit (top) but not the paradoxical circuit (bottom). Dashed line indicates carrying capacity.
# To encode the Paradaux circuit, a single multi-protein construct expressing osTIR1, the auxin-regulated iCasp9 system, and the auxin-regulated Blast R construct described above was designed (FIG. 4C). To eliminate one potential mechanism for evolutionary escape, Blast^R was positioned at the C-terminal end of the construct, so that premature stop codon mutations would deactivate Blast®, decreasing survival. The construct was integrated to create stable monoclonal CHO-K1 cell lines for further analysis. […]
# [8] = fitted value, major Paradaux line (1)
# [9] = fitted value, second Paradaux line (2)
compound,measurement,setting,value
"O=C(O)Cc1c[nH]c2ccccc12 [IAA, indole-3-acetic acid]",Time to death of parental cells,[1],≤ 3 days
same,Effect on cell survival,[2],inhibit cell survival
same,EC50,[3],110 nM
"NC(=O)Cc1c[nH]c2ccccc12 [IAM, indole-3-acetamide]",Reporter fluorescence versus population density with precursor,[4],"strong, but density-independent, decrease in fluorescence"
same,Cell numbers at high seeding density versus no IAM or IAA,[5],reduced cell numbers
same,Reduction of mCherry-AID-BlastR in Receivers by media conditioned by Sender-Receivers with precursor,[6],comparable to those generated by saturating concentrations of IAA
"O=C(O)Cc1cccc2ccccc12 [NAA, 1-napthalenatic acid]",EC50,[3],760 nM
"NC(=O)Cc1cccc2ccccc12 [NAM, 1-naphthaleneacetamide]",Reporter fluorescence versus population density with precursor,[4],decreased in response to increasing population density
same,Reduction of mCherry-AID-BlastR in Receivers by media conditioned by Sender-Receivers with precursor,[6],diminished response compared to NAA
CN(CC[C@H](N)CC(=O)N[C@H]1C=C[C@H](n2ccc(N)nc2=O)O[C@@H]1C(=O)O)C(=N)N [blasticidin],"n1, cooperativity of the blasticidin regulation",[7]; [8],2.26(1); DL
same,"βB, maximum net growth reduction by blasticidin",[7]; [8],0.0874(1); hr^−1
same,"κB, effective strength of blasticidin",[7]; [8],0.045(1); (μg/ml)^−1
same,"n1, cooperativity of the blasticidin regulation",[7]; [9],2.28(2) DL
same,"βB, maximum net growth reduction by blasticidin",[7]; [9],0.147(2) hr^−1
same,"κB, effective strength of blasticidin",[7]; [9],0.069(2) (μg/ml)^−1
auxin,Survival of Paradaux cells as a function of auxin,[7]; both blasticidin and AP1903,biphasic survival curve
same,"κA, effective strength of auxin",[7]; fitted value,1.316 µM⁻¹
same,Survival of Paradaux cells as a function of auxin,[7]; in the presence of AP1903,increased monotonically
same,Survival of Paradaux cells as a function of auxin,[7]; in the presence of blasticidin,decreased
